Measured values published in patent EP1733731A1, “New uses of Glycerol derivatives in particular in cosmetics” (AGRO INDUSTRIE RECHERCHES ET DEVELOPPEMENTS (A.R.D.), priority 2005, dated 2006).

Tested on: TIMP-1
Assay: TIMP-1 secretion by dermal fibroblasts (reverse zymography)
Format: cell-based
Description: Les effets de ces composés et fractions ont été étudiés sur la sécrétion de TIMP-1 par des fibroblastes dermiques en culture. L'analyse de la quantité de TIMP-1 produite est effectuée par une technique de zymographie inverse (Biotechniques. 2005 Jan;38(1):73-83. Zymographic techniques for the analysis of matrix metalloproteinases and their inhibitors. Snoek-van Beurden PA, Von den Hoff JW). Les résultats présentés sont exprimés en pourcentage par rapport au témoin sans effecteur.

CCCCC/C=C\C/C=C\CCCCCCCCOC[C@H](CO[C@@H]1O[C@H](COC(=O)CCCCCCCCCCCCCCC)[C@H](O)[C@H](O)[C@H]1O)OCCCCCCCC/C=C\C/C=C\CCCCC [ED23-11, 1,2-di-O-linoléyl-3-O-[6'-O-palmitoyl-β-D-galactopyranosyl]-sn-glycérol]
sécrétion de TIMP-1, pourcentage par rapport au témoin sans effecteur (5 ng/mL): 102% | sécrétion de TIMP-1, pourcentage par rapport au témoin sans effecteur (25 ng/mL): 104% | sécrétion de TIMP-1, pourcentage par rapport au témoin sans effecteur (50 ng/mL): 98% | sécrétion de TIMP-1, pourcentage par rapport au témoin sans effecteur (100 ng/mL): 101% | sécrétion de TIMP-1, pourcentage par rapport au témoin sans effecteur (200 ng/mL): 106% | surexpression du TIMP-1 (over the tested concentration range, result in words): pas
